System: lipid raft (LR) microdomain of the macrophage plasma membrane
Assay: Binding of exogenous HRP-labeled HSP70 to purified lipid raft fractions
Design: species or system murine
Conditions: HRP-labeled HSP70 100 μg/ml; with ganglioside GM1; Brij98 or Triton X-100
Description: Purification of lipid rafts. Lipid rafts were purified as DRMs (detergent resistant membrane) using non-ionic detergents following sucrose gradient centrifugation. […] After incubation, cells were washed 3× with PBS and lysed with 2 ml MES (4-morpholinoethanesulfonic acid) buffered saline (MBS; 150 mM NaCl, 20 mM MES, pH 6.5, […] and 5 mM iodoacetamide) containing 0.5% Triton X-100 or 1% for 30 minutes on ice or 7 minutes at 37° C. respectively. The cells were mixed with an equal volume of 90% sucrose in MEB buffer (150 mM NaCl, 20 mM MES [pH 6.5]) and placed at the bottom of the centrifuge tube. […] Fractions of 1 ml each were collected from the bottom of tube and each fraction was analyzed by SDS-PAGE and immunoblotting.
Briefly, RAW264.7 macrophages were treated with exogenous HRP-labeled HSP70 (100 μg/ml) or were left untreated for 60 minutes and washed with PBS three times to remove free HSPs. […] These fractions obtained (light: LR and heavy: non-LR) were then analyzed using immunoblotting to detect HRP activity of HSP70-HRP complexes or tested for the presence of an LR-associated ganglioside GM1 by using HRP-cholera toxin B. Similarly, these fractions were tested for the amount of cholesterol using (Biovision Research Products, CA). […]

## HSP70: heat shock protein purified from murine livers, prepared as a complex with endogenous peptide
  localisation of exogenously administered HSP70: co-localized on the LR-microdomain of the macrophage plasma membrane

Source: US20070098735A1, “Methods for the Elimination of Pathogens and Other Particulate Agents” (priority 2005, published 2007)
